Assay [1] has as its target NLRP3 inflammasome (Mus musculus, UniProt Q8R4B8). Briefly: Inhibition of IL-1β release, NLRP3 inflammasome activation assay in BMDM. It is filed as cell-based. How it is done: (§1) The following assays can be used to determine inhibitory activity of test compounds on the NLRP3 inflammasome using common stimuli such as adenosine triphosphate, nigericin, LeuLeu-OMe or monosodium urate crystals (MSU).
Mouse bone marrow-derived macrophages (BMDM) were derived from bone marrow progenitors isolated from the femurs and tibias of C57BL/6 mice.
BMDM are seeded at 1×10^5/ml. The following day the overnight medium is replaced and cells are stimulated with Ultrapure lipopolysaccharide from Escherichia coli K12 strain (InvivoGen) for 3 h. Medium is removed and replaced with serum free medium (SFM) containing test compound 30 min prior to NLRP3 stimulation. […] ATP can be sourced from Sigma Aldrich, nigericin and MSU from Invivogen and LeuLeu-Ome from Chem-Impex International.
(§2) For ELISA and cell death assays cells are seeded in 96 well plates. Supernatants are removed and analysed using ELISA kits according to the manufacturer's instructions (DuoSet® R&D Systems, ReadySetGo!® eBioscience, BD OptEIA™, or Perkin Elmer AlphaLISA®). Cell death is assessed by measurement of LDH release relative to a 100% cell lysis control using the CytoTox96® non-radioactive cytotoxicity assay (Promega).

Assay [2] deals with NLRP3 inflammasome (Homo sapiens, UniProt Q96P20). Briefly: Inhibition of IL-1β release, NLRP3 inflammasome activation assay in HMDM. As to conditions: inhibition of IL-1β release, class symbols, read-out: Avg. IL-1β IC50 HMDM. It is filed as cell-based. The protocol:
as §1
To generate HMDM, human monocytes are isolated from buffy coat blood using Ficoll-Plaque Plus (GE Healthcare) and density centrifugation. CD14^+ cell selection is performed using MACS magnetic beads (Miltenyl Biotec).
HMDM are seeded at 1×10^5/ml. […] Medium is removed and replaced with serum free medium (SFM) containing test compound 30 min prior to NLRP3 stimulation. […] ATP can be sourced from Sigma Aldrich, nigericin and MSU from Invivogen and LeuLeu-Ome from Chem-Impex International.
as §2

Where [3] appears, read: inhibition of IL-1β release, class symbols, read-out: Avg. IL-1β IC50 Murine BMDM.
[4] abbreviates: inhibition of IL-1β release, numeric bounds, read-out: Avg. IL-1β IC50 Murine BMDM.

The structures appear in SMILES notation. Read-outs that look alike come from different tables or passages of the source.

Sequence of NLRP3 inflammasome (Mus musculus, UniProt Q8R4B8) (Q8R4B8 whole entry): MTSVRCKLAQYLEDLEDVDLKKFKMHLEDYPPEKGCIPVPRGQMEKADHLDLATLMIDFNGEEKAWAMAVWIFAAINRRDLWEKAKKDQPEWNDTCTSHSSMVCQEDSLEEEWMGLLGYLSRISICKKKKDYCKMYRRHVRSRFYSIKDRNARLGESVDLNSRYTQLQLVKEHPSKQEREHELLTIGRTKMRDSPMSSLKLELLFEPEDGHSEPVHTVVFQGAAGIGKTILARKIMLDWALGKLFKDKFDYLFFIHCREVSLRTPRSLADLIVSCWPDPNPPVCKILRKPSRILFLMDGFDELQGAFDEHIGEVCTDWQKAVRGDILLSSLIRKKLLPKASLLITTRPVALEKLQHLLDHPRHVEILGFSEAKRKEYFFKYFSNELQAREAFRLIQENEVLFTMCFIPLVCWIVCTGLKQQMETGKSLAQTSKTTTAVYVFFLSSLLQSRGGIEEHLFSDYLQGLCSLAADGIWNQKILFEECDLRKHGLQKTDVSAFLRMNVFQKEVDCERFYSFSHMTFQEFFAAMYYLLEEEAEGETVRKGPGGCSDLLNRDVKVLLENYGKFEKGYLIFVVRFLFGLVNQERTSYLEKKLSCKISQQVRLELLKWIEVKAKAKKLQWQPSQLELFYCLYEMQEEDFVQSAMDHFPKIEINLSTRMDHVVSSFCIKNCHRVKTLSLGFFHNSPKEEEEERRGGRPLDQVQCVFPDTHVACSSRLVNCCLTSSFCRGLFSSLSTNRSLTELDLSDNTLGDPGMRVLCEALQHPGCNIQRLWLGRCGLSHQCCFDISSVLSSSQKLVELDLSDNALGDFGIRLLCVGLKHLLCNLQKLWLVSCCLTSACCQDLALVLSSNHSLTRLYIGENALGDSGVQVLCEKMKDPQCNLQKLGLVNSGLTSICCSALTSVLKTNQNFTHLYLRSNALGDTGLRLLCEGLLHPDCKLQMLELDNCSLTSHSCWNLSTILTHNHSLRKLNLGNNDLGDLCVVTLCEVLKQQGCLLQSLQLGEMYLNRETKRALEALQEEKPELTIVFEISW
Sequence of NLRP3 inflammasome (Homo sapiens, UniProt Q96P20) (Q96P20 whole entry): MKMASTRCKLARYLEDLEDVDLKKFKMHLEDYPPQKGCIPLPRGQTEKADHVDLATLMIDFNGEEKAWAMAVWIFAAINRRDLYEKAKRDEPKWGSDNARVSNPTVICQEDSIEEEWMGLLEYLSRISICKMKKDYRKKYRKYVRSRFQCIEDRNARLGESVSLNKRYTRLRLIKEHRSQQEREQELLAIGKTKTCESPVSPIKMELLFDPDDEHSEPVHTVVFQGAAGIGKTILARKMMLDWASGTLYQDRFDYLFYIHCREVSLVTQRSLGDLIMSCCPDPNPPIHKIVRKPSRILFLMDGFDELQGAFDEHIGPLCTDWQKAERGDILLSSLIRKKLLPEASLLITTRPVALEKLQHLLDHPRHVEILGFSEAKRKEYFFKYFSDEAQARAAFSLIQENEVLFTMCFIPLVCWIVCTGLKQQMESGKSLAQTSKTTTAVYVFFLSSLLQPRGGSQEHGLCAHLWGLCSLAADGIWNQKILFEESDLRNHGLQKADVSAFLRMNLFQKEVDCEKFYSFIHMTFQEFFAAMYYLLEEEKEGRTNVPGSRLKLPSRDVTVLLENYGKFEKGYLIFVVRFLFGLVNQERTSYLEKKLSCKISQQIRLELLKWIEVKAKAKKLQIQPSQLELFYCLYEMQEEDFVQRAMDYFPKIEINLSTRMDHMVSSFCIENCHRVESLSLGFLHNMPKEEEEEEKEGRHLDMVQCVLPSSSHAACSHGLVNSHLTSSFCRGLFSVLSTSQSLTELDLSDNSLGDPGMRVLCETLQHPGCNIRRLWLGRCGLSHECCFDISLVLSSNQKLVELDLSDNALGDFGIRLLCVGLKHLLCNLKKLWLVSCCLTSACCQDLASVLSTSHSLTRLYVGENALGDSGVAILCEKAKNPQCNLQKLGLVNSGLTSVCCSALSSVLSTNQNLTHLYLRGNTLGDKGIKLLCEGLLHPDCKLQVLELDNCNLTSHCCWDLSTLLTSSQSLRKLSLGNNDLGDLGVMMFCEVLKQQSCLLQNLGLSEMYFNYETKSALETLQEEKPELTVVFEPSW

As to `CC(C)(O)c1coc(S(=O)(=O)NC(=O)Nc2c3ccccc3cc3ccccc23)c1` [N-(anthracen-9-ylcarbamoyl)-4-(2-hydroxypropan-2-yl)furan-2-sulfonamide], on NLRP3 inflammasome [1] (setting [3]), the half-maximal inhibitory concentration (IC50) is below 10000 nM.

Take `CC(C)(O)c1coc(S(=O)(=O)NC(=O)Nc2c3ccoc3cc3ccoc23)c1` [N-(benzo[1,2-b:4,5-b′]difuran-4-ylcarbamoyl)-4-(2-hydroxypropan-2-yl)furan-2-sulfonamide]: on NLRP3 inflammasome [1] (setting [3]), the IC50 is below 100 nM.

For `CC(C)c1cc(Cl)cc(C(C)C)c1NC(=O)NS(=O)(=O)c1ccc2cc(Cl)ccc2c1` [6-chloro-N-((4-chloro-2,6-diisopropylphenyl)carbamoyl)naphthalene-2-sulfonamide], the concentration for half-maximal inhibition (IC50) on NLRP3 inflammasome [1] (setting [3]) was below 100 nM.

Take `O=C(Nc1c2c(cc3c1CCC3)CCC2)NS(=O)(=O)c1ccc([N+](=O)[O-])cc1` [drawing 368]: the IC50 on NLRP3 inflammasome [1] (select compounds of the first aspect (Table 10), read-out: BMDM IC50 vs NLRP3) was determined as 43 nM.

Take `CC(C)n1ccc(S(=O)(=O)NC(=O)Nc2nc(C(C)(C)C)cc(C(C)(C)C)n2)n1` [N-((4,6-di-tert-butylpyrimidin-2-yl)carbamoyl)-1-isopropyl-1H-pyrazole-3-sulfonamide]: the half-inhibitory concentration (IC50) on NLRP3 inflammasome [1] (setting [4]) was above 10000 nM.

As to `CC(C)(O)c1coc(S(=O)(=O)NC(=O)Nc2c3c(cc4c2OCC4)OCC3)c1` [4-(2-hydroxypropan-2-yl)-N-((2,3,6,7-tetrahydrobenzo[1,2-b:4,5-b′]difuran-4-yl)carbamoyl)furan-2-sulfonamide], the 50% inhibitory concentration (IC50) on NLRP3 inflammasome [1] (setting [3]) was below 1000 nM.

`Cc1cc(Cl)cc(C(F)(F)F)c1NC(=O)NS(=O)(=O)c1cc(C(C)(C)O)co1` [N-((4-chloro-2-methyl-6-(trifluoromethyl)phenyl)carbamoyl)-4-(2-hydroxypropan-2-yl)furan-2-sulfonamide]: the half-inhibitory concentration (IC50) at NLRP3 inflammasome [1] (setting [4]) was above 10000 nM.

As to `Cc1cc(C)nc(NC(=O)NS(=O)(=O)c2ccn(C(C)C)n2)n1` [N-((4,6-dimethylpyrimidin-2-yl)carbamoyl)-1-isopropyl-1H-pyrazole-3-sulfonamide], the IC50 at NLRP3 inflammasome [1] (setting [4]) was above 10000 nM.

Turning to `CCOC(=O)c1coc(S(=O)(=O)NC(=O)Nc2c3c(cc4c2CCC4)CCC3)c1` [ethyl 5-(N-((1,2,3,5,6,7-hexahydro-s-indacen-4-yl)carbamoyl)sulfamoyl)furan-3-carboxylate], the IC50 at NLRP3 inflammasome [1] (setting [3]) was below 1000 nM.

With `O=C(Nc1c2c(cc3c1CCC3)CCC2)NS(=O)(=O)c1cccc2cccnc12` [N-((1,2,3,5,6,7-hexahydro-s-indacen-4-yl)carbamoyl)quinoline-8-sulfonamide], on NLRP3 inflammasome [2], the IC50 is below 1000 nM.

`CN(C)S(=O)(=O)c1cccc(S(=O)(=O)NC(=O)Nc2c3c(cc4c2CCC4)CCC3)c1` [N1-((1,2,3,5,6,7-hexahydro-s-indacen-4-yl)carbamoyl)-N3,N3-dimethylbenzene-1,3-disulfonamide]: the IC50 on NLRP3 inflammasome [2] is below 100 nM.

`CC(C)c1cc(S(=O)(=O)NC(=O)Nc2c3c(cc4c2CCC4)CCC3)nn1C` [N-((1,2,3,5,6,7-hexahydro-s-indacen-4-yl)carbamoyl)-5-isopropyl-1-methyl-1H-pyrazole-3-sulfonamide]: the half-inhibitory concentration (IC50) at NLRP3 inflammasome [2] is below 1000 nM.

For `CC(C)c1cc(Cl)cc(C(C)C)c1NC(=O)NS(=O)(=O)c1cccc2ncccc12` [N-((4-chloro-2,6-diisopropylphenyl)carbamoyl)quinoline-5-sulfonamide], the IC50 at NLRP3 inflammasome [2] was below 1000 nM.

For `Cc1oc(S(=O)(=O)NC(=O)Nc2c(C(C)C)cccc2C(C)C)cc1C(C)(C)O` [N-((2,6-diisopropylphenyl)carbamoyl)-4-(2-hydroxypropan-2-yl)-5-methylfuran-2-sulfonamide], the IC50 on NLRP3 inflammasome [2] was below 100 nM.

Consider `[N-]=[N+]=Nc1cccc(S(=O)(=O)NC(=O)Nc2c3c(cc4c2CCC4)CCC3)c1` [3-Azido-N-((1,2,3,5,6,7-hexahydro-s-indacen-4-yl)carbamoyl)benzenesulfonamide], for which the IC50 at NLRP3 inflammasome [2] was below 1000 nM.

For `Cc1cnc(C(=O)NCCc2ccc(S(=O)(=O)NC(=O)Nc3c4c(cc5c3CCC5)CCC4)cc2)cn1` [N-(4-(N-((1,2,3,5,6,7-hexahydro-s-indacen-4-yl)carbamoyl)sulfamoyl)phenethyl)-5-methylpyrazine-2-carboxamide], the half-maximal inhibitory concentration (IC50) at NLRP3 inflammasome [2] was below 1000 nM.

What is called IC50 is the midpoint of a concentration-inhibition curve.

These data come from patent US10538487B2, “Sulfonylureas and related compounds and use of same” (priority 2015, dated 2020).
